Data on one molecule can be found in publication PMC7803973, “Structural basis of malaria parasite phenylalanine tRNA-synthetase inhibition by bicyclic azetidines” (Nature Communications, 2021).

The target in experiment [1] is T1, HscFRS (Homo sapiens, UniProt Q9Y285). The experiment in a line: Malachite green aminoacylation enzyme inhibition assay. It is filed as biochemical. As to the method: (§1) These were done using malachite green assay as per earlier published reports[1],[6]. Briefly, the reaction was performed for 100 µM ATP, 50 µM L-phenylalanine and 100 nM recombinant PheRS enzymes (Pf, Pv, Hs, Pf mutant (L550V)) in a buffer containing 30 mM HEPES (pH 7.5), 150 mM, NaCl, 30 mM KCl, 50 mM, MgCl2, 1 mM DTT, and 2 U/ml E. coli inorganic pyrophosphatase (NEB) at 37 °C. Enzymatic reactions (50 μl total volume) were performed in clear, flat-bottomed, 96-well plates (Costar 96-well standard microplates). The reaction mixture was incubated for 2 h at 37 °C. The reaction was stopped by adding 12.5 μl of malachite green solution to the reaction mixture and levels of inorganic phosphate (Pi) were detected after incubation of 5 min at room temperature. Absorbance was the measured at 620 nm using a Spectramax M2 (Molecular Devices). Reactions without FRS enzyme were performed as background controls, values of which were subtracted from the reactions with enzyme. BRD1389 was added to our aminoacylation assay reaction buffer in varying concentrations ranging from 0.1 nM to 10,000 nM. The IC50 value for the data is shown for three replicates as the mean ± SD.
T1 sequence (Q9NSD9 whole entry): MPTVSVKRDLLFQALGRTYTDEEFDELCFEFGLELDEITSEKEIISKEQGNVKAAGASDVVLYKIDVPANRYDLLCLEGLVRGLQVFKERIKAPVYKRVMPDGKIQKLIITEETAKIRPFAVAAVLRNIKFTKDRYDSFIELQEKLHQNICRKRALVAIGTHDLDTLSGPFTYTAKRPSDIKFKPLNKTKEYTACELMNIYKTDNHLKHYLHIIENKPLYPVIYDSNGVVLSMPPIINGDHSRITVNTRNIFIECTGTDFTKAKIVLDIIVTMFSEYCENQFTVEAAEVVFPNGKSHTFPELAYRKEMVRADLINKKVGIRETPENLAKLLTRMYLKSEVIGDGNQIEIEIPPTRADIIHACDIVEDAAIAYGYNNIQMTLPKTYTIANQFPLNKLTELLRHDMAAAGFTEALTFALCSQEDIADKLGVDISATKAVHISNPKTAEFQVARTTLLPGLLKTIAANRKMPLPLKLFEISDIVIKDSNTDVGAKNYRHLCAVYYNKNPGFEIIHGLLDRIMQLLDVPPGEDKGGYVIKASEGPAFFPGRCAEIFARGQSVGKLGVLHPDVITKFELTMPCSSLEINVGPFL
T1 sequence (Q9Y285 whole entry): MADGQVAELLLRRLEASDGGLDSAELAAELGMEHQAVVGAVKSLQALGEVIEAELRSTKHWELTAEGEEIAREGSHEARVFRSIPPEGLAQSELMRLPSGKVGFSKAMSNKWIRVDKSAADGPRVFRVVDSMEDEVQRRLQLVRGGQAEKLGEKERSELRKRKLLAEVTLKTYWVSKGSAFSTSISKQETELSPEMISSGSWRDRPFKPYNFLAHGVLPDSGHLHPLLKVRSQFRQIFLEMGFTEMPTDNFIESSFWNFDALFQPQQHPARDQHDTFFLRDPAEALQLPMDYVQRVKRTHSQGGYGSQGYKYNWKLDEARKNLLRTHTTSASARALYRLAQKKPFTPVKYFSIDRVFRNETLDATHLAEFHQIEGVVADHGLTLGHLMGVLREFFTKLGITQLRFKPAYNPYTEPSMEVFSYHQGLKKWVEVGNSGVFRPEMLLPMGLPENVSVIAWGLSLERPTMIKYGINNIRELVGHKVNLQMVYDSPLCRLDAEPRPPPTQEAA

The target in experiment [2] is T2, PfcFRS (Plasmodium falciparum, UniProt Q8I246).
T2 sequence (Q8I246 1-575): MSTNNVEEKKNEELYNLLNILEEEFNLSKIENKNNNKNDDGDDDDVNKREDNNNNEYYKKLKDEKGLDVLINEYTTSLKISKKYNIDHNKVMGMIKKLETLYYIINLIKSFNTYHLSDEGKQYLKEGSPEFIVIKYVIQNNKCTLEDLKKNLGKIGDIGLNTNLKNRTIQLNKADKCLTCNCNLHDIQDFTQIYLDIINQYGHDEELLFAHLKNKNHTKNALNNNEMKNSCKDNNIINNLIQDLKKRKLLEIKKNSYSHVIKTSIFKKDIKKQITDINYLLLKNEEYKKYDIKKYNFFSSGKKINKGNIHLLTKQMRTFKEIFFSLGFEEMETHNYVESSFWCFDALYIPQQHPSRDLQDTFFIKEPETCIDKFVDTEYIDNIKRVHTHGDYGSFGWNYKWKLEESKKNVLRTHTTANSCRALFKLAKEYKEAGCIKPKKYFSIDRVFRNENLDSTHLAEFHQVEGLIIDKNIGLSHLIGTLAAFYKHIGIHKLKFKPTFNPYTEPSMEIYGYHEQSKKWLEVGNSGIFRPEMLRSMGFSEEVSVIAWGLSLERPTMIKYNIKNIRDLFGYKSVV
T2 sequence (Q8IIW2 1-623 partner): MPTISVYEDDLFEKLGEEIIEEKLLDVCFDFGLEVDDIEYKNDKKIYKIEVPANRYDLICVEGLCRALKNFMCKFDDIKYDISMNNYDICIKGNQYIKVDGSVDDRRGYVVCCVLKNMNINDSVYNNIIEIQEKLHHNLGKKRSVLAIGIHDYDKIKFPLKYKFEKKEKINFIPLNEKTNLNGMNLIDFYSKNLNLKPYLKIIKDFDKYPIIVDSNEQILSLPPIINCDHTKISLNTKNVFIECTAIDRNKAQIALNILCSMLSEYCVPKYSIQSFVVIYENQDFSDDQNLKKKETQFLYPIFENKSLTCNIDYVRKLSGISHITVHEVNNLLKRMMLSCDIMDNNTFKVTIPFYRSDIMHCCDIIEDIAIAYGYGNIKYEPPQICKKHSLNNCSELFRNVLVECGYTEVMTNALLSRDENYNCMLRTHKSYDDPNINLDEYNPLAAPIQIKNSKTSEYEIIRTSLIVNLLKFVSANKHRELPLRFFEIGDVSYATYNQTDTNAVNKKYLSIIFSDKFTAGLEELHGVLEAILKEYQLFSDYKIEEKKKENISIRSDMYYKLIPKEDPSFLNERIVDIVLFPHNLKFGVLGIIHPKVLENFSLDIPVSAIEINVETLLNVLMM
The description is as above. It is filed as biochemical. As to the method: as §1

For experiment [3], the target named is T1, HscFRS. The experiment in a line: Surface plasmon resonance binding. To be noted: Hs; SPR, 1:1 binding model; read-out: Kd (cFRS). As to the method: (§2) These were carried out on a Biacore T200 instrument (GE Healthcare) at 25 °C. The binding experiments were performed in buffer 10 mM phosphate buffered saline (PBS), pH 7.4, containing 5% dimethyl sulfoxide (DMSO). The flow system was primed with the running buffer before the initiation of the experiment. Both PfcFRS and HscFRS were immobilized to Sensor Chip CM5 by standard amine coupling chemistry using N-hydroxysuccinimide (NHS) and ethyl(dimethylaminopropyl) carbodiimide (EDC) to an immobilization level of approximately 1500 RU. The binding experiments were carried out in a single cycle kinetics mode. BRD1389 was serially diluted in running buffer and injected at a flow rate of 60 μl min^−1 across both surfaces for 60 s and dissociations were set up for 120 s. The data analysis was done using Biacore evaluation T200 Evaluation software (GE Healthcare) and after applying the solvent correction, the data was fitted into the 1:1 binding evaluation method to determine the equilibrium dissociation constants (Kd).
A general note: Surface plasmon resonance follows binding to a sensor surface in real time, without labels.

Experiment [4] addresses T2, PfcFRS. The experiment can be described thus: Surface plasmon resonance binding. To be noted: Pf; SPR, 1:1 binding model; read-out: Kd (cFRS). As to the method:
as §2

In another experiment the test system is Dd2. The experiment in a line: Whole parasite growth inhibition (Dd2), quoted in peer review file. It counts as cell-based. To be noted: quoted by Reviewer #2 from the submitted manuscript.

Usually IC50 stands for the point on the concentration scale where inhibition reaches its midpoint. Higher therefore signals a need for much substance. What is called Kd is the constant that tells how readily two partners part at equilibrium.

Structures are written as SMILES.

As to `COC[C@@H]1[C@H](c2ccc(C#Cc3ccccc3)cc2)[C@@H]2CN(C(=O)Nc3ccc(OC4CC4)cc3)C[C@@H](O)[C@@H](O)CN12` [BRD1389], the IC50 turned out to be 12 µM on HscFRS [1] (Hs cFRS aminoacylation activity) and 0.012 ± 0.0008 µM at PfcFRS [2] (Pf cFRS aminoacylation activity). Also, the remaining activity at 0.0001 µM on HscFRS [1] (HscFRS, BRD1389 0.0001 uM) is 99.6%; at PfcFRS [2] (2 h, PfcFRS, BRD1389 0.0001 uM), 98.4%. The remaining activity at 0.001 µM at HscFRS [1] (HscFRS, BRD1389 0.001 uM) was 100%; on PfcFRS [2] (2 h, PfcFRS, BRD1389 0.001 uM), 85.2%. Besides, the remaining activity at 0.01 µM worked out at 99.7% on HscFRS [1] (HscFRS, BRD1389 0.01 uM) and 46.7% at PfcFRS [2] (2 h, PfcFRS, BRD1389 0.01 uM). Further, the remaining activity at 0.1 µM worked out at 90.2% on HscFRS [1] (HscFRS, BRD1389 0.1 uM) and 9.72% on PfcFRS [2] (2 h, PfcFRS, BRD1389 0.1 uM). Further, the remaining activity at 1 µM turned out to be 85% on HscFRS [1] (HscFRS, BRD1389 1 uM) and 4.61% at PfcFRS [2] (2 h, PfcFRS, BRD1389 1 uM). The remaining activity at 10 µM on HscFRS [1] (HscFRS, BRD1389 10 uM) was 49.5%; at PfcFRS [2] (2 h, PfcFRS, BRD1389 10 uM) it was 1.17%. Further, the remaining activity at 100 µM is 20% on HscFRS [1] (HscFRS, BRD1389 100 uM) and 0% on PfcFRS [2] (2 h, PfcFRS, BRD1389 100 uM). Moreover, the remaining activity at 1 pM at PfcFRS [2] (2 h, read-out: % Enzyme Activity) came to 100%. Besides, the Kd on HscFRS [3] came to 16 µM; at PfcFRS [4], 0.004 µM. The “Dd2 growth inhibitory activity” value in the experiment with Dd2 is on record as < 1 nM.
